Measured values reported in patent publication US20260297081A1, “COMPOUNDS AND METHODS OF TREATING CANCERS” (Cullgen Inc., priority 2023, published 2026).

Target: CDK4 (Homo sapiens, UniProt P11802+Q16531)
Assay: CDK4 percentage degradation in Calu-1 cells (Table 6)
Assay type: cell-based
Parameters: Cells that express cyclin D1-3 and CDK4/6 proteins were treated with heterobifunctional compounds; endogenous in cells; host or cells: Calu-1
Conditions: 16 hours; for inhibition at 0.04 µM: 40 nM; for inhibition at 0.2 µM: 200 nM
Procedure, shortened: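 Percentage degradation of Cyclin D1 and CDK4 derived from densitometry of ECL Western blots on lysates of Calu-1 cells. Treatment was 16 h with compound at either 40 nM or 200 nM.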

Chain of CDK4 (P11802 2-303 limits assumed): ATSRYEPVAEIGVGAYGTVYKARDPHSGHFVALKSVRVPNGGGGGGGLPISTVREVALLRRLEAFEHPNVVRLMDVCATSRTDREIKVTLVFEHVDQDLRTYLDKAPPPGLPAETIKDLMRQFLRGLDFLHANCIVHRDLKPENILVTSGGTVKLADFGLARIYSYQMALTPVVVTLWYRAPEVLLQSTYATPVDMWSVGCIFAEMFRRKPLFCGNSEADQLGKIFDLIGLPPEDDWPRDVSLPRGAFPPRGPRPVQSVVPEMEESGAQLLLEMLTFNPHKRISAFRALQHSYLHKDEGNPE
Chain of CDK4 (P24385 whole entry partner): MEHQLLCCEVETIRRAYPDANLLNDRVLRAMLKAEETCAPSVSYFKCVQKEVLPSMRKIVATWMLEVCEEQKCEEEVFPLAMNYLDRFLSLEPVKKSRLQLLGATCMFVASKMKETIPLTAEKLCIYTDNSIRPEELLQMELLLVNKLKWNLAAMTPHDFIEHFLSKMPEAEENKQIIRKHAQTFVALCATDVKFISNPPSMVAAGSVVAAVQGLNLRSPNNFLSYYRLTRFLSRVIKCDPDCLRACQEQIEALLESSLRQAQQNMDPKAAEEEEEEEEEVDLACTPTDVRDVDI
Chain of CDK4 (Q16531 2-1140 limits assumed): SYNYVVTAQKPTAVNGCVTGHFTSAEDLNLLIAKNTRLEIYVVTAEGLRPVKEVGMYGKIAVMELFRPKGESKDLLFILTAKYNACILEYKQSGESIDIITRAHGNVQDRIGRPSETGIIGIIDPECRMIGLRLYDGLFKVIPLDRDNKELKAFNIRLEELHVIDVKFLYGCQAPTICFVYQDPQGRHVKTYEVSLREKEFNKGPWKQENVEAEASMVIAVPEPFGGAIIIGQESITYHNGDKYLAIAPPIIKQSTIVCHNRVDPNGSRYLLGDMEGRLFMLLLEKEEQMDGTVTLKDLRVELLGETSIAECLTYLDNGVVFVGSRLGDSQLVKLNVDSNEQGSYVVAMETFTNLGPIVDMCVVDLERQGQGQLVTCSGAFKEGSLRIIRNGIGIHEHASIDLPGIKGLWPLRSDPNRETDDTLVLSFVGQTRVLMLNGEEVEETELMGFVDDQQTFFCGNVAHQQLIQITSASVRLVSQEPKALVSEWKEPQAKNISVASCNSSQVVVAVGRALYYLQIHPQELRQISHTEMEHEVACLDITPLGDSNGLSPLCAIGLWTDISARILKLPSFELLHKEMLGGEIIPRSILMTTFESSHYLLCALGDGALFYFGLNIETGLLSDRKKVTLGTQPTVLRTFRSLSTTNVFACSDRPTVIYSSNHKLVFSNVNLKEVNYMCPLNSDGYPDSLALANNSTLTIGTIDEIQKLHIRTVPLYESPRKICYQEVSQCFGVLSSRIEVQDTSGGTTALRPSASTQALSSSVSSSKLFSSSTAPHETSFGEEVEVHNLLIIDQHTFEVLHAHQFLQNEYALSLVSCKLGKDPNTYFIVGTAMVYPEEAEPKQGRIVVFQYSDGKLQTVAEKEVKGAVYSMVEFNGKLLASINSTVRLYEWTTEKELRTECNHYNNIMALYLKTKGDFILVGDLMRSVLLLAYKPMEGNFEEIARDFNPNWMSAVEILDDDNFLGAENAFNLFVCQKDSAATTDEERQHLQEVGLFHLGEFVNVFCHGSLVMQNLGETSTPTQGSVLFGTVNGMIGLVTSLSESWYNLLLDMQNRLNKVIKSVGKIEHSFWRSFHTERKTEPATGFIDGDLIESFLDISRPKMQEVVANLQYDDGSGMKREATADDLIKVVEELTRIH

SMILES	inhibition at 0.04 µM [%]	inhibition at 0.2 µM [%]
CNc1ccc(C(=O)Nc2cccc(C(C)C)n2)c(NC2CC3(CC(NC(=O)CN4CCN(c5ccc(Nc6ncc7c(C)c(C(C)=O)c(=O)n(C8CCCC8)c7n6)nc5)CC4)C3)C2)n1 (stereo not shown) [CPD-76, 2-((6-(2-(4-(6-((6-Acetyl-8-cyclopentyl-5-methyl-7-oxo-7,8-dihydropyrido[2,3-d]pyrimidin-2-yl)amino)pyridin-3-yl)piperazin-1-yl)acetamido)spiro[3.3]heptan-2-yl)amino)-N-(6-isopropylpyridin-2-yl)-6-(methylamino)nicotinamide]	< 30	30 to 50
CNc1ccc(C(=O)Nc2ccc(=O)[nH]n2)c(NCCCCCNC(=O)CN2CCN(c3ccc(Nc4ncc5c(C)c(C(C)=O)c(=O)n(C6CCCC6)c5n4)nc3)CC2)n1 [CPD-77, 2-((5-(2-(4-(6-((6-Acetyl-8-cyclopentyl-5-methyl-7-oxo-7,8-dihydropyrido[2,3-d]pyrimidin-2-yl)amino)pyridin-3-yl)piperazin-1-yl)acetamido)pentyl)amino)-6-(methylamino)-N-(6-oxo-1,6-dihydropyridazin-3-yl)nicotinamide]	< 30	< 30
CNc1ccc(C(=O)Nc2ccc(N(C)C)nn2)c(NC2CC3(CC(NCC(=O)N4CCN(c5ccc(Nc6ncc7c(C)c(C(C)=O)c(=O)n(C8CCCC8)c7n6)nc5)CC4)C3)C2)n1 (stereo not shown) [CPD-78, 2-((6-((2-(4-(6-((6-Acetyl-8-cyclopentyl-5-methyl-7-oxo-7,8-dihydropyrido[2,3-d]pyrimidin-2-yl)amino)pyridin-3-yl)piperazin-1-yl)-2-oxoethyl)amino)spiro[3.3]heptan-2-yl)amino)-N-(6-(dimethylamino)pyridazin-3-yl)-6-(methylamino)nicotinamide]	50 to 80	50 to 80
CNc1ccc(C(=O)Nc2ccc(N(C)C)nn2)c(NC2CC3(CC(CCC(=O)N4CCN(c5ccc(Nc6ncc7c(C)c(C(C)=O)c(=O)n(C8CCCC8)c7n6)nc5)CC4)C3)C2)n1 (stereo not shown) [CPD-82, 2-((6-(3-(4-(6-((6-Acetyl-8-cyclopentyl-5-methyl-7-oxo-7,8-dihydropyrido[2,3-d]pyrimidin-2-yl)amino)pyridin-3-yl)piperazin-1-yl)-3-oxopropyl)spiro[3.3]heptan-2-yl)amino)-N-(6-(dimethylamino)pyridazin-3-yl)-6-(methylamino)nicotinamide]	30 to 50	30 to 50
CNc1ccc(C(=O)Nc2ccc(N(C)C)nn2)c(NC2CC3(CC(CCCN4CCN(c5ccc(Nc6ncc7c(C)c(C(C)=O)c(=O)n(C8CCCC8)c7n6)nc5)CC4)C3)C2)n1 (stereo not shown) [CPD-83, 2-((6-(3-(4-(6-((6-Acetyl-8-cyclopentyl-5-methyl-7-oxo-7,8-dihydropyrido[2,3-d]pyrimidin-2-yl)amino)pyridin-3-yl)piperazin-1-yl)propyl)spiro[3.3]heptan-2-yl)amino)-N-(6-(dimethylamino)pyridazin-3-yl)-6-(methylamino)nicotinamide]	< 30	30 to 50
CNc1ccc(C(=O)Nc2ccnc(C3CC3)c2)c(NC2CC3(CC(NC(=O)CN4CCN(c5ccc(Nc6ncc7c(C)c(C(C)=O)c(=O)n(C8CCCC8)c7n6)nc5)CC4)C3)C2)n1 (stereo not shown) [CPD-86, 2-((6-(2-(4-(6-((6-Acetyl-8-cyclopentyl-5-methyl-7-oxo-7,8-dihydropyrido[2,3-d]pyrimidin-2-yl)amino)pyridin-3-yl)piperazin-1-yl)acetamido)spiro[3.3]heptan-2-yl)amino)-N-(2-cyclopropylpyridin-4-yl)-6-(methylamino)nicotinamide]	< 30	< 30
CNc1ccc(C(=O)Nc2ccc(C(F)(F)F)c(C3CC3)n2)c(NC2CC3(CC(NC(=O)CN4CCN(c5ccc(Nc6ncc7c(C)c(C(C)=O)c(=O)n(C8CCCC8)c7n6)nc5)CC4)C3)C2)n1 (stereo not shown) [CPD-87, 2-((6-(2-(4-(6-((6-Acetyl-8-cyclopentyl-5-methyl-7-oxo-7,8-dihydropyrido[2,3-d]pyrimidin-2-yl)amino)pyridin-3-yl)piperazin-1-yl)acetamido)spiro[3.3]heptan-2-yl)amino)-N-(6-cyclopropyl-5-(trifluoromethyl)pyridin-2-yl)-6-(methylamino)nicotinamide]	< 30	< 30
CNc1ccc(C(=O)Nc2cccc(N(C)C)n2)c(NC2CC3(CC(NC(=O)CN4CCN(c5ccc(Nc6ncc7c(C)c(C(C)=O)c(=O)n(C8CCCC8)c7n6)nc5)CC4)C3)C2)n1 (stereo not shown) [CPD-88, 2-((6-(2-(4-(6-((6-Acetyl-8-cyclopentyl-5-methyl-7-oxo-7,8-dihydropyrido[2,3-d]pyrimidin-2-yl)amino)pyridin-3-yl)piperazin-1-yl)acetamido)spiro[3.3]heptan-2-yl)amino)-N-(6-(dimethylamino)pyridin-2-yl)-6-(methylamino)nicotinamide]	30 to 50	50 to 80
CNc1ccc(C(=O)Nc2ccc(N(C)C)nn2)c(NCCC2CCN(C(=O)CN3CCN(c4ccc(Nc5ncc6c(C)c(C(C)=O)c(=O)n(C7CCCC7)c6n5)nc4)CC3)CC2)n1 [CPD-89, 2-((2-(1-(2-(4-(6-((6-Acetyl-8-cyclopentyl-5-methyl-7-oxo-7,8-dihydropyrido[2,3-d]pyrimidin-2-yl)amino)pyridin-3-yl)piperazin-1-yl)acetyl)piperidin-4-yl)ethyl)amino)-N-(6-(dimethylamino)pyridazin-3-yl)-6-(methylamino)nicotinamide]	50 to 80	50 to 80
CNc1ccc(C(=O)Nc2cccc(C#N)n2)c(NC2CC3(CC(NC(=O)CN4CCN(c5ccc(Nc6ncc7c(C)c(C(C)=O)c(=O)n(C8CCCC8)c7n6)nc5)CC4)C3)C2)n1 (stereo not shown) [CPD-90, 2-((6-(2-(4-(6-((6-Acetyl-8-cyclopentyl-5-methyl-7-oxo-7,8-dihydropyrido[2,3-d]pyrimidin-2-yl)amino)pyridin-3-yl)piperazin-1-yl)acetamido)spiro[3.3]heptan-2-yl)amino)-N-(6-cyanopyridin-2-yl)-6-(methylanino)nicotinamide]	< 30	50 to 80
CNc1ccc(C(=O)Nc2cccc(C(F)(F)F)n2)c(NC2CC3(CC(NC(=O)CN4CCN(c5ccc(Nc6ncc7c(C)c(C(C)=O)c(=O)n(C8CCCC8)c7n6)nc5)CC4)C3)C2)n1 (stereo not shown) [CPD-91, 2-((6-(2-(4-(6-((6-Acetyl-8-cyclopentyl-5-methyl-7-oxo-7,8-dihydropyrido[2,3-d]pyrimidin-2-yl)amino)pyridin-3-yl)piperazin-1-yl)acetamido)spiro[3.3]heptan-2-yl)amino)-6-(methylamino)-N-(6-(trifluoromethyl)pyridin-2-yl)nicotinamide]	< 30	30 to 50
CNc1ccc(C(=O)Nc2cc(C)[nH]n2)c(NC2CC3(CC(NC(=O)CN4CCN(c5ccc(Nc6ncc7c(C)c(C(C)=O)c(=O)n(C8CCCC8)c7n6)nc5)CC4)C3)C2)n1 (stereo not shown) [CPD-92, 2-((6-(2-(4-(6-((6-Acetyl-8-cyclopentyl-5-methyl-7-oxo-7,8-dihydropyrido[2,3-d]pyrimidin-2-yl)amino)pyridin-3-yl)piperazin-1-yl)acetamido)spiro[3.3]heptan-2-yl)amino)-N-(5-methyl-1H-pyrazol-3-yl)-6-(methylamino)nicotinamide]	< 30	< 30
CNc1ccc(C(=O)Nc2ccn(C)n2)c(NC2CC3(CC(NC(=O)CN4CCN(c5ccc(Nc6ncc7c(C)c(C(C)=O)c(=O)n(C8CCCC8)c7n6)nc5)CC4)C3)C2)n1 (stereo not shown) [CPD-93, 2-((6-(2-(4-(6-((6-Acetyl-8-cyclopentyl-5-methyl-7-oxo-7,8-dihydropyrido[2,3-d]pyrimidin-2-yl)amino)pyridin-3-yl)piperazin-1-yl)acetamido)spiro[3.3]heptan-2-yl)amino)-N-(1-methyl-1H-pyrazol-3-yl)-6-(methylamino)nicotinamide]	30 to 50	50 to 80
CNc1ccc(C(=O)Nc2cnn(C)c2)c(NC2CC3(CC(NC(=O)CN4CCN(c5ccc(Nc6ncc7c(C)c(C(C)=O)c(=O)n(C8CCCC8)c7n6)nc5)CC4)C3)C2)n1 (stereo not shown) [CPD-94, 2-((6-(2-(4-(6-((6-Acetyl-8-cyclopentyl-5-methyl-7-oxo-7,8-dihydropyrido[2,3-d]pyrimidin-2-yl)amino)pyridin-3-yl)piperazin-1-yl)acetamido)spiro[3.3]heptan-2-yl)amino)-N-(1-methyl-1H-pyrazol-4-yl)-6-(methylamino)nicotinamide]	< 30	30 to 50
CNc1ccc(C(=O)Nc2cc(C(C)C)n(C)n2)c(NC2CC3(CC(NC(=O)CN4CCN(c5ccc(Nc6ncc7c(C)c(C(C)=O)c(=O)n(C8CCCC8)c7n6)nc5)CC4)C3)C2)n1 (stereo not shown) [CPD-95, 2-((6-(2-(4-(6-((6-Acetyl-8-cyclopentyl-5-methyl-7-oxo-7,8-dihydropyrido[2,3-d]pyrimidin-2-yl)amino)pyridin-3-yl)piperazin-1-yl)acetamido)spiro[3.3]heptan-2-yl)amino)-N-(5-isopropyl-1-methyl-1H-pyrazol-3-yl)-6-(methylamino)nicotinamide]	< 30	< 30
CNc1ccc(C(=O)Nc2ccc(N(C)C)nn2)c(NC2CC3(CC(NCCN4CCN(c5ccc(Nc6ncc7c(C)c(C(C)=O)c(=O)n(C8CCCC8)c7n6)nc5)CC4)C3)C2)n1 (stereo not shown) [CPD-96, 2-((6-((2-(4-(6-((6-Acetyl-8-cyclopentyl-5-methyl-7-oxo-7,8-dihydropyrido[2,3-d]pyrimidin-2-yl)amino)pyridin-3-yl)piperazin-1-yl)ethyl)amino)spiro[3.3]heptan-2-yl)amino)-N-(6-(dimethylamino)pyridazin-3-yl)-6-(methylamino)nicotinamide]	< 30	< 30
CNc1ccc(C(=O)Nc2ccc(N(C)C)nn2)c(NC2CC3(C2)CN(C(=O)CN2CCN(c4ccc(Nc5ncc6c(C)c(C(C)=O)c(=O)n(C7CCCC7)c6n5)nc4)CC2)C3)n1 [CPD-97]	50 to 80	> 80
